Residues, ends and D or L forms follow the SMILES beside them. *: point of attachment. Cbz = O=C(OCc1ccccc1)*; OtBu = CC(C)(C)O*
Test system: primary human MSC cells
Assay: BMP regulation: gene expression array (SABiosciences PAHS-026) in primary human MSC cells
Format: cell-based
Settings: hMSC, 8 hours
Experimental: SABisosciences custom array plates (Cat#PAHS-026) were used to measure BMP expression. These array plates are validated for efficiency when used at recommended conditions and reagents. On day 1, primary human MSC cells were plated at 200,000 cell/well using 6-well plates with 10% FBS, Penicillin and Streptomycin 10 mL per Liter, in recommended media. Only early passages of cells were used.
On day 2, cells were treated with compounds dissolved in DMSO diluted 1:1000 or more to avoid solvent effects. A non-treated negative control group was evaluated (FIG. 1, “Control Group”) along with a positive control group containing PS1 at 0.1 μM (FIG. 1, “Group 1”). Final testing concentration for CSA-90 was 5.0 μM (FIG. 1, “Group 2”), 2.5 μM (FIG. 1, “Group 3”), and 1.2 μM (FIG. 1, “Group 4”). Treatment lasted 8 hours, followed by RNA isolation using a QIAGEN Miniprep Kit. RNA was measured at 260/280 nm using NanoDrop2000 and normalized to 250 ng. cDNA preparation was done using QIAGEN First Strand kit.

[1] = PS1 0.1 μM, v. untreated control

Structure (SMILES): CC[C@H](C)[C@H](NC(=O)OCc1ccccc1)C(=O)N[C@@H](CCC(=O)OC(C)(C)C)C(=O)N[C@@H](C)C(=O)N[C@H](C=O)CC(C)C [PS1, reference compound] (Cbz-IE(OtBu)AL-aldehyde)
- up-regulation of BMP-2 mRNA compared to the control (0.1 μM): 3 fold
- Fold Up-Regulation ACTB (Actin, beta) [1]: −1.4183 fold
- Fold Up-Regulation AHSG (Alpha-2-HS-glycoprotein) [1]: −1.3295 fold
- Fold Up-Regulation ALPL (Alkaline phosphatase, liver/bone/kidney) [1]: −1.4723 fold
- Fold Up-Regulation AMBN (Ameloblastin) [1]: −1.9272 fold
- Fold Up-Regulation AMELY (Amelogenin, Y-linked) [1]: −1.8864 fold
- Fold Up-Regulation ANXA5 (Annexin A5) [1]: 1.1236 fold
- Fold Up-Regulation BGLAP (Bone gamma-carboxyglutamate (gla) protein) [1]: −1.3879 fold
- Fold Up-Regulation BGN (Biglycan) [1]: −1.1323 fold
- Fold Up-Regulation BMP-1 (Bone morphogenetic protein 1) [1]: −1.1214 fold
- Fold Up-Regulation BMP-2 (Bone morphogenetic protein 2) [1]: 3.0816 fold
- Fold Up-Regulation BMP-3 (Bone morphogenetic protein 3) [1]: −1.1038 fold
- Fold Up-Regulation BMP-4 (Bone morphogenetic protein 4) [1]: −2.2148 fold
- Fold Up-Regulation BMP-5 (Bone morphogenetic protein 5) [1]: 1.124 fold
- Fold Up-Regulation BMP-6 (Bone morphogenetic protein 6) [1]: 2.642 fold
- Fold Up-Regulation CALCR (CALCITONIN RECEPTOR) [1]: 1.124 fold
- Fold Up-Regulation CD36 (CD36 molecule, thrombospondin receptor) [1]: −1.0202 fold
- Fold Up-Regulation CDH11 (Cadherin 11, type 2, OB-cadherin) [1]: −2.2309 fold
- Fold Up-Regulation COL1A1 (Collagen, type I, alpha 1) [1]: −1.1935 fold
- Fold Up-Regulation COL1A2 (Collagen, type I, alpha 2) [1]: −1.0689 fold
- Fold Up-Regulation COL2A1 (Collagen, type II, alpha 1) [1]: −1.4242 fold
- Fold Up-Regulation COL3A1 (Collagen, type III, alpha 1) [1]: −1.0806 fold
- Fold Up-Regulation COL4A3 (Collagen, type IV, alpha 3) [1]: −1.0619 fold
- Fold Up-Regulation COL5A1 (Collagen, type V, alpha 1) [1]: 1.0927 fold
- Fold Up-Regulation COL10A1 (Collagen, type X, alpha 1) [1]: 1.5421 fold
- Fold Up-Regulation COL11A1 (Collagen, type XI, alpha 1) [1]: −1.4875 fold
- Fold Up-Regulation COL12A1 (Collagen, type XII, alpha 1) [1]: 1.0767 fold
- Fold Up-Regulation COL14A1 (Collagen, type XIV, alpha 1) [1]: −1.5279 fold
- Fold Up-Regulation COL15A1 (Collagen, type XV, alpha 1) [1]: 1.2144 fold
- Fold Up-Regulation COMP (Cartilage oligomeric matrix protein) [1]: 1.2648 fold
- Fold Up-Regulation CSF2 (Colony stimulating factor 2) [1]: 6.205 fold
- Fold Up-Regulation CSF3 (Colony stimulating factor 3) [1]: −2.4364 fold
- Fold Up-Regulation CTSK (Cathepsin K) [1]: −1.2679 fold
- Fold Up-Regulation DMP1 (Dentin matrix acidic phosphoprotein 1) [1]: 1.124 fold
- Fold Up-Regulation DSPP (Dentin sialophosphoprotein) [1]: 1.124 fold
- Fold Up-Regulation EGF (Epidermal growth factor) [1]: −1.2529 fold
- Fold Up-Regulation EGFR (Epidermal growth factor receptor) [1]: −1.8532 fold
- Fold Up-Regulation ENAM (Enamelin) [1]: 1.124 fold
- Fold Up-Regulation FGF1 (Fibroblast growth factor 1) [1]: −1.4948 fold
- Fold Up-Regulation FGF2 (Fibroblast growth factor 2) [1]: 1.3957 fold
- Fold Up-Regulation FGF3 (Fibroblast growth factor 3) [1]: −1.3257 fold
- Fold Up-Regulation FGFR1 (Fibroblast growth factor receptor 1) [1]: −1.0999 fold
- Fold Up-Regulation FGFR2 (Fibroblast growth factor receptor 2) [1]: −1.2644 fold
- Fold Up-Regulation FLT1 (Fms-related tyrosine kinase 1) [1]: −2.7821 fold
- Fold Up-Regulation FN1 (Fibronectin 1) [1]: 1.099 fold
- Fold Up-Regulation GAPDH (Glyceraldehyde-3-phosphate dehydrogenase) [1]: 1.161 fold
- Fold Up-Regulation GDF10 (Growth differentiation factor 10) [1]: 1.124 fold
- Fold Up-Regulation ICAM1 (Intercellular adhesion molecule 1) [1]: 1.5053 fold
- Fold Up-Regulation IGF1 (Insulin-like growth factor 1) [1]: 1.5067 fold
- Fold Up-Regulation IGF1R (Insulin-like growth factor 1 receptor) [1]: −1.0699 fold
- Fold Up-Regulation IGF2 (Insulin-like growth factor 2) [1]: −1.2388 fold
- Fold Up-Regulation ITGA1 (Integrin, alpha 1) [1]: 1.325 fold
- Fold Up-Regulation ITGA2 (Integrin, alpha 2) [1]: −1.0945 fold
- Fold Up-Regulation ITGA3 (Integrin, alpha 3) [1]: −1.8917 fold
- Fold Up-Regulation ITGAM (Integrin, alpha M) [1]: 1.3319 fold
- Fold Up-Regulation ITGB1 (Integrin, beta 1) [1]: 1.1614 fold
- Fold Up-Regulation MMP2 (Matrix metallopeptidase 2) [1]: −1.1194 fold
- Fold Up-Regulation MMP8 (Matrix metallopeptidase 8) [1]: 3.7453 fold
- Fold Up-Regulation MMP9 (Matrix metallopeptidase 9) [1]: −1.2449 fold
- Fold Up-Regulation MMP10 (Matrix metallopeptidase 10) [1]: 1.3516 fold
- Fold Up-Regulation MSX1 (Msh homeobox 1) [1]: 6.2916 fold
- Fold Up-Regulation NFKB1 (Nuclear factor of kappa light polypeptide gene enhancer in B-cells 1) [1]: −1.1038 fold
- Fold Up-Regulation PDGFA (Platelet-derived growth factor alpha polypeptide) [1]: 1.0421 fold
- Fold Up-Regulation PHEX (Phosphate regulating endopeptidase homolog, Xlinked) [1]: 1.9871 fold
- Fold Up-Regulation RUNX2 (Runt-related transcription factor 2) [1]: −3.542 fold
- Fold Up-Regulation SCARB1 (Scavenger receptor class B, member 1) [1]: 1.1791 fold
- Fold Up-Regulation SERPIN H1 (Serpin peptidase inhibitor, clade H, member 1) [1]: 1.4764 fold
- Fold Up-Regulation SMAD1 (SMAD family member 1) [1]: −1.2813 fold
- Fold Up-Regulation SMAD2 (SMAD family member 2) [1]: 1.0462 fold
- Fold Up-Regulation SMAD3 (SMAD family member 3) [1]: −2.771 fold
- Fold Up-Regulation SMAD4 (SMAD family member 4) [1]: 1.3022 fold
- Fold Up-Regulation STATH (Statherin) [1]: −2.2674 fold
- Fold Up-Regulation TFIP11 (Tuftelin interacting protein 11) [1]: 1.1041 fold
- Fold Up-Regulation TGFB1 (Transforming growth factor, beta 1) [1]: −1.2644 fold
- Fold Up-Regulation TGFB2 (Transforming growth factor, beta 2) [1]: 1.0081 fold
- Fold Up-Regulation TGFB3 (Transforming growth factor, beta 3) [1]: 2.2234 fold
- Fold Up-Regulation TGFBR1 (Transforming growth factor, beta receptor 1) [1]: 2.0059 fold
- Fold Up-Regulation TGFBR2 (Transforming growth factor, beta receptor II) [1]: −2.3752 fold
- Fold Up-Regulation TNF (Tumor necrosis factor) [1]: 1.8055 fold
- Fold Up-Regulation TUFT1 (Tuftelin 1) [1]: 1.4326 fold
- Fold Up-Regulation TWIST1 (Twist homolog 1) [1]: −2.197 fold
- Fold Up-Regulation VCAM1 (Vascular cell adhesion molecule 1) [1]: −2.406 fold
- Fold Up-Regulation VDR (Vitamin D (1,25-dihydroxyvitamin D3) receptor) [1]: −1.5248 fold
- Fold Up-Regulation VEGFA (Vascular endothelial growth factor A) [1]: −1.0162 fold
- Fold Up-Regulation VEGFB (Vascular endothelial growth factor B) [1]: −1.1191 fold

— US9694019B2, “Compositions and methods for treating bone diseases and broken bones” (BRIGHAM YOUNG UNIVERSITY, priority 2011, dated 2017)
